From ChEMBL document CHEMBL5236588 (J Med Chem, 2022) come the findings set out here.

Data set [1] in a line: Inhibition of human FXIIa.
The nature of data set [2]: Inhibition of FXIIa (unknown origin) using Ac-QRFR-pNA as substrate measured at 30 sec interval by microplate reader assay. Details: species or system Homo sapiens.
Data set [3] in a line: Stability of compound in human serum at 50 uM incubated for 24 hrs by reversed phase HPLC analysis. It counts as ADME, cell-free.
Data set [4] in a line: Inhibition of human FXa using Z-Pyr-GR-MCA as substrate.
The target in data set [5] is Plasminogen (Homo sapiens, UniProt P00747). As to the kind of experiment: Inhibition of human plasmin using Ac-RM(O2)YR-pNA as substrate.
Data set [6] can be described thus: Stability of compound in human serum at 50 uM incubated for 8 hrs by reversed phase HPLC analysis. It counts as ADME, cell-free. Particulars: read-out: Stability.
The target in data set [7] is Plasma kallikrein (Homo sapiens, UniProt P03952). The data set can be described thus: Inhibition of human plasma kallikrein using Z-FR-MCA as substrate. The format is cell-free.
Data set [8] can be described thus: Inhibition of human cationic trypsin using Boc-VPR-MCA as susbtrate.
Data set [9] in a line: Inhibition of human FXIa using Boc-Glu(OBzl)-AR-MCA as substrate.
A short description of data set [10]: Inhibition of human beta-FIXa using Boc-QGR-MCA as substrate.
Data set [11] deals with T1, Suppressor of tumorigenicity 14 protein (Homo sapiens, UniProt Q9Y5Y6).
T1 sequence (Q9Y5Y6 whole entry): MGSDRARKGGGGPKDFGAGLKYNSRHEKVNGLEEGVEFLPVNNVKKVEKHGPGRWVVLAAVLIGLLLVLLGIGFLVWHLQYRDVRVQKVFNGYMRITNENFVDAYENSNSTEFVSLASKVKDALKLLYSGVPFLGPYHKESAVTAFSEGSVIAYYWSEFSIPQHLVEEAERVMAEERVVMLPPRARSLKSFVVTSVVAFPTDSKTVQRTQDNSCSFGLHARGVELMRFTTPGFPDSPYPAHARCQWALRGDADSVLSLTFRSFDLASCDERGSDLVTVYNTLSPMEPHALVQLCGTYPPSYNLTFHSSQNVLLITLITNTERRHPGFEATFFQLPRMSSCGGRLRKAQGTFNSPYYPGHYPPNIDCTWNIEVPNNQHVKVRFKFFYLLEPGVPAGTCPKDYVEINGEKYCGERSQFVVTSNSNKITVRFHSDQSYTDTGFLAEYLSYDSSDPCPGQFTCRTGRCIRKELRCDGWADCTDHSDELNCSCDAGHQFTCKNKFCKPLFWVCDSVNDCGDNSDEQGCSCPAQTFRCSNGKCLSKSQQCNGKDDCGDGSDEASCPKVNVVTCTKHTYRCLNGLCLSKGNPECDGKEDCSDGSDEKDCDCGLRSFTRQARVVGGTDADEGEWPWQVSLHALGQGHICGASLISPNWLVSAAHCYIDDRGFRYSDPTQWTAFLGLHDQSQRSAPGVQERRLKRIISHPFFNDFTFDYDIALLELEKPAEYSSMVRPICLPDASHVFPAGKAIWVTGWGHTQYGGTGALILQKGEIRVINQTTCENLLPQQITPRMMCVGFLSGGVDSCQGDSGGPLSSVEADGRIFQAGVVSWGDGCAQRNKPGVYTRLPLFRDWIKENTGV
As to the kind of experiment: Inhibition of recombinant human matriptase using Boc-QAR-MCA as substrate.

The species named for data set [12] is Homo sapiens. The data set can be described thus: Anticoagulant activity in human plasma assessed as prolongation of activated partial thromboplastin time by measuring concentration required to double aPTT. The format is functional.

Residues, ends and D or L forms follow the SMILES beside them.

Sequence of Plasma kallikrein (P03952 20-390 limits assumed): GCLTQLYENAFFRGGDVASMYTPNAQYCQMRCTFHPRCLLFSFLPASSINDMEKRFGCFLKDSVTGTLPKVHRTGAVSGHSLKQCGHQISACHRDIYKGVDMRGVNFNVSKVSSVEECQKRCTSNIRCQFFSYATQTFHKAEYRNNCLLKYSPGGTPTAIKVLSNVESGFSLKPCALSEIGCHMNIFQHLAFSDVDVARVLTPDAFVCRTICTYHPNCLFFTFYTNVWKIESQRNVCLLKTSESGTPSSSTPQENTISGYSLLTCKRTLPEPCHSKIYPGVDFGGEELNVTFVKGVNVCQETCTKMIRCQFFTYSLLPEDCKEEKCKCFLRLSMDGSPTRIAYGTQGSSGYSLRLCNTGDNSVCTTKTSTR
Sequence of Plasma kallikrein (P03952 391-638 limits assumed): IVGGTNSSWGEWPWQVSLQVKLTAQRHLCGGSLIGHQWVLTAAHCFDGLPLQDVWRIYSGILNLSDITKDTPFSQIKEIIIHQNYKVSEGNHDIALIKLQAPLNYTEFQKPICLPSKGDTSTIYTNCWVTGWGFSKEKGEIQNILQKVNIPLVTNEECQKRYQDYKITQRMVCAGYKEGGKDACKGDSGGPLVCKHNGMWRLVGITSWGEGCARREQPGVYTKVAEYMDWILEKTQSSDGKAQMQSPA
Sequence of Plasminogen (P00747 97-580 limits assumed): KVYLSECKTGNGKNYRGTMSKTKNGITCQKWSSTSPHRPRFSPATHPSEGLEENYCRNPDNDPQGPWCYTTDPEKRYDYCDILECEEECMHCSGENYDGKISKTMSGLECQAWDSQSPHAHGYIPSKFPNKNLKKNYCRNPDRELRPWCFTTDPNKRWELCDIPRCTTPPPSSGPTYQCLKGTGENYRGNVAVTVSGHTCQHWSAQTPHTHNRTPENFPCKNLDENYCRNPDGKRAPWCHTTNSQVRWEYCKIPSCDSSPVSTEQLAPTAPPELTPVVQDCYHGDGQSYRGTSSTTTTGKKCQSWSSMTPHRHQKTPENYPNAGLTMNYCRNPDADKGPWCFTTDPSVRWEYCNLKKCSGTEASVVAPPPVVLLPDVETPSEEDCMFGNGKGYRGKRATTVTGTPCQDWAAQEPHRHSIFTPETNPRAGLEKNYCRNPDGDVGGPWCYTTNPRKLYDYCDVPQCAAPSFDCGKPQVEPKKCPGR
Sequence of Plasminogen (P00747 581-810 limits assumed): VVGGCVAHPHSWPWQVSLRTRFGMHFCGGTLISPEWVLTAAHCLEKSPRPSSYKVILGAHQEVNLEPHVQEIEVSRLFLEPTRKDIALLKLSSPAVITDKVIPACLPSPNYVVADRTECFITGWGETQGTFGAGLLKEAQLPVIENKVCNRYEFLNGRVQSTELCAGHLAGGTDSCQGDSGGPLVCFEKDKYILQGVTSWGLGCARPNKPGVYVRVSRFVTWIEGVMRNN

Usually Ki stands for a dissociation constant, usually derived from enzyme kinetics or from competition with a known ligand. As for `CC(C)C[C@@H]1NC(=O)[C@H](CCC(N)=O)NC(=O)[C@H](Cc2c[nH]cn2)NC(=O)[C@@H]2CSCCC(=O)N3CN(CN(C3)C(=O)CCSC[C@H](NC(=O)[C@@H](CO)NC(=O)[C@H](N)CCCNC(=N)N)C(=O)N[C@@H](Cc3ccc(F)cc3)C(=O)N[C@@H](CCCNC(=N)N)C(=O)N[C@@H](CC(C)C)C(=O)N3CCC[C@H]3C(=O)N2)C(=O)CCSC[C@@H](C(=O)O)NC(=O)C[C@H](CCCNC(=N)N)NC1=O`, the Ki in data set [1] stood at 0.37 nM.
`CC[C@H](C)[C@@H]1NC(=O)[C@@H]2CSSC[C@@H]3NC(=O)[C@H](CCC(N)=O)NC(=O)CNC(=O)CNC(=O)[C@H](CC(=O)O)NC(=O)[C@H](CO)NC(=O)CNC(=O)[C@H](CO)NC(=O)CNC(=O)[C@@H]4CSSC[C@H](NC(=O)[C@H](CC(=O)O)NC(=O)[C@H](CO)NC(=O)[C@H](CC(=O)O)NC(=O)[C@H](CCCNC(=N)N)NC(=O)[C@H](CCCNC(=N)N)NC(=O)[C@H](CSSC[C@H](NC1=O)C(=O)N[C@@H](CCCNC(=N)N)C(=O)NCC(=O)N[C@@H](CC(N)=O)C(=O)NCC(=O)N[C@@H](Cc1ccc(O)cc1)C(=O)N4)NC(=O)[C@H](CCCCN)NC(=O)[C@H](CCCCN)NC(=O)[C@H](CC(C)C)NC(=O)[C@H]([C@@H](C)CC)NC(=O)[C@H](CCCNC(=N)N)NC(=O)[C@H](Cc1ccccc1)NC3=O)C(=O)N1CCC[C@H]1C(=O)NCC(=O)N[C@@H](C)C(=O)N2` (HELM PEPTIDE1{A.C.I.C.R.G.N.G.Y.C.G.S.G.S.D.G.G.Q.C.F.R.I.L.K.K.C.R.R.D.S.D.C.P.G}$PEPTIDE1,PEPTIDE1,2:R3-19:R3|PEPTIDE1,PEPTIDE1,4:R3-26:R3|PEPTIDE1,PEPTIDE1,10:R3-32:R3|PEPTIDE1,PEPTIDE1,1:R1-34:R2$$$V2.0) displayed a Ki in [2] of 193 nM. Besides, the Stability result in [3] was “Stable”.
What is called IC50 is the concentration that inhibits the measured activity by half. A low value points to inhibition by little substance. Take `CC[C@H](C)[C@@H]1NC(=O)[C@H](CCCNC(=N)N)NC(=O)[C@H](Cc2ccccc2)NC(=O)[C@@H](NC(=O)[C@H](CCCNC(=N)N)NC(=O)CNC(=O)CN)CSSC[C@@H]2NC(=O)[C@H](C)NC(=O)CNC(=O)[C@@H]3CCCN3C(=O)[C@@H]3CSSC[C@@H](C(=O)NCC(=O)N[C@@H](CO)C(=O)O)NC(=O)[C@H](Cc4ccc(O)cc4)NC(=O)CNC(=O)[C@H](CC(N)=O)NC(=O)CNC(=O)[C@H](CCCNC(=N)N)NC(=O)[C@H](CSSC[C@H](NC(=O)[C@H](CCCCN)NC(=O)[C@H](CCCCN)NC(=O)CNC1=O)C(=O)N[C@@H](CCCNC(=N)N)C(=O)N[C@@H](CCCNC(=N)N)C(=O)N[C@@H](CC(=O)O)C(=O)N[C@@H](CO)C(=O)N[C@@H](CC(=O)O)C(=O)N3)NC(=O)[C@H]([C@@H](C)CC)NC2=O` (HELM PEPTIDE1{G.G.R.C.F.R.I.G.K.K.C.R.R.D.S.D.C.P.G.A.C.I.C.R.G.N.G.Y.C.G.S}$PEPTIDE1,PEPTIDE1,4:R3-21:R3|PEPTIDE1,PEPTIDE1,11:R3-23:R3|PEPTIDE1,PEPTIDE1,17:R3-29:R3$$$V2.0) [listing 1 of 2 here]: the IC50 in [4], in data set [5], in data set [7], in data set [8], in data set [9] and in data set [10] was above 5000 nM throughout. The remaining at 8 h, 50 µM in data set [6] came out at 100%. Moreover, the results for the Ki in data set [2] and in data set [11] were 2 nM and 1430 nM, respectively. For the same molecule, the Stability entry in data set [3] is “Stable”.
Consider `CC[C@H](C)[C@@H]1NC(=O)[C@H](CCCNC(=N)N)NC(=O)[C@H](Cc2ccccc2)NC(=O)[C@@H](NC(=O)[C@H](CCCNC(=N)N)NC(=O)CNC(=O)CN)CSSC[C@@H]2NC(=O)[C@H](C)NC(=O)CNC(=O)[C@@H]3CCCN3C(=O)[C@@H]3CSSC[C@@H](C(=O)NCC(=O)N[C@@H](CO)C(=O)O)NC(=O)[C@H](Cc4ccc(O)cc4)NC(=O)CNC(=O)[C@H](CC(N)=O)NC(=O)CNC(=O)[C@H](CCCNC(=N)N)NC(=O)[C@H](CSSC[C@H](NC(=O)[C@H](CCCCN)NC(=O)[C@H](CCCCN)NC(=O)CNC1=O)C(=O)N[C@@H](CCCNC(=N)N)C(=O)N[C@@H](CCCNC(=N)N)C(=O)N[C@@H](CC(=O)O)C(=O)N[C@@H](CO)C(=O)N[C@@H](CC(=O)O)C(=O)N3)NC(=O)[C@H]([C@@H](C)CC)NC2=O` (HELM PEPTIDE1{G.G.R.C.F.R.I.G.K.K.C.R.R.D.S.D.C.P.G.A.C.I.C.R.G.N.G.Y.C.G.S}$PEPTIDE1,PEPTIDE1,4:R3-21:R3|PEPTIDE1,PEPTIDE1,11:R3-23:R3|PEPTIDE1,PEPTIDE1,17:R3-29:R3$$$V2.0) [listing 2 of 2 here], for which, in data set [12], the Activity came out at 2.5 µM.
Consider `CC[C@H](C)[C@@H]1NC(=O)[C@@H]2CSSC[C@H](NC(=O)[C@H](CCCNC(=N)N)NC(=O)CNC(=O)CN)C(=O)N[C@@H](Cc3ccccc3)C(=O)N[C@@H](CCCNC(=N)N)C(=O)N[C@@H]([C@@H](C)CC)C(=O)N[C@@H](CC(C)C)C(=O)N[C@@H](CCCCN)C(=O)N[C@@H](CCCCN)C(=O)N[C@H]3CSSC[C@H](NC1=O)C(=O)N[C@@H](CCCNC(=N)N)C(=O)NCC(=O)N[C@@H](CC(N)=O)C(=O)NCC(=O)N[C@@H](Cc1ccc(O)cc1)C(=O)N[C@H](C(=O)NCC(=O)N[C@@H](CO)C(=O)O)CSSC[C@H](NC(=O)[C@H](CC(=O)O)NC(=O)[C@H](CO)NC(=O)[C@H](CC(=O)O)NC(=O)[C@H](CCCNC(=N)N)NC(=O)[C@H](CCCNC(=N)N)NC3=O)C(=O)N1CCC[C@H]1C(=O)NCC(=O)N[C@@H](C)C(=O)N2` (HELM PEPTIDE1{G.G.R.C.F.R.I.L.K.K.C.R.R.D.S.D.C.P.G.A.C.I.C.R.G.N.G.Y.C.G.S}$PEPTIDE1,PEPTIDE1,4:R3-21:R3|PEPTIDE1,PEPTIDE1,11:R3-23:R3|PEPTIDE1,PEPTIDE1,17:R3-29:R3$$$V2.0), for which the IC50 in data set [4], in data set [7], in data set [9] and in data set [10] was above 5000 nM each time. The Ki stood at 86 nM in data set [5], 3 nM in data set [2], 275 nM in data set [8] and 30 nM in data set [11].
